# Experimental data taken from article PMC11167311, “Revolutionizing GPCR–ligand predictions: DeepGPCR with experimental validation for high-precision drug discovery” (Briefings in Bioinformatics, 2024).
# Like-named read-outs stand apart in the source and are kept apart here.
# Columns and labels:
# [1] = target: T1, hGPR35 (Homo sapiens, UniProt Q9HC97); assay: DMR antagonism (desensitization) assay in CHO-GPR35 cells, zaprinast challenge; assay type: cell-based; conditions: for GPR35 receptor activity (result in words): CHO-GPR35 cells, desensitization when stimulated by agonist zaprinast
# T1 construct: expressed in transfected cells
# T1 sequence (Q9HC97 whole entry): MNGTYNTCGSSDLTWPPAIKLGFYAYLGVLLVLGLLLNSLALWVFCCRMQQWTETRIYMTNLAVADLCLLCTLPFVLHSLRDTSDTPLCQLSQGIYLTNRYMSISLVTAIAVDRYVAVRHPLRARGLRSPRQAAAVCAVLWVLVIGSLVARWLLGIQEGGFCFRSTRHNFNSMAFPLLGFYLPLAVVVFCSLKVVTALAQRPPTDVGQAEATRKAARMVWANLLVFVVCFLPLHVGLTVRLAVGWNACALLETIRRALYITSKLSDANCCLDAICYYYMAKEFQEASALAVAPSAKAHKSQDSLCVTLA
# Procedure: (§1) CHO-GPR35 cells were the same as our previously reported. CHO-GPR35 cells were cultured in an F12 medium supplemented with 10% FBS, penicillin (50 μg/ml), streptomycin (100 μg/ml) and zeocin (200 μg/ml) at 37°C under 5% CO2. HEK293 cells were purchased from the National Collection of Authenticated Cell Cultures (Shanghai, China) and cultured in DMEM medium supplemented with 10% FBS, penicillin (50 μg/ml) and streptomycin (100 μg/ml) and at 37°C under 5% CO2.
# (§2) When the cells approached 90% confluence, they were seeded in 384-well biosensor plates with a density of 1.5 × 10^4 CHO-GPR35 or 2.5 × 10^4 HEK293-GLP-1R cells/well and cultured for 24 h. The culture medium in the 384-well biosensor plates was replaced with 30 μl of Hank’s balanced salt solution (1 × HBSS) and then further incubated inside the system for 1 h before measurement. For the dynamic mass redistribution (DMR) agonism assay, a 2-min baseline was first established, followed by adding compounds using the multi-channel pipette, and the compound-triggered DMR responses were recorded for approximately 1 h. […] For DMR antagonism assay, cells were initially treated with either an antagonist or compound for 1 h in GPR35 and 90 min in GLP-1R assays, respectively. […] All DMR responses were background-corrected.
# [2] = target: T1, hGPR35; assay: DMR agonism assay in CHO-GPR35 cells; assay type: cell-based
# Procedure: as §1, §2
SMILES,IC50 [1],GPR35 receptor activity (result in words) [1],compound-triggered DMR signal in CHO-GPR35 cells [2],"IC50 ([1]; read-out: IC50 (hGPR35, DMR desensitization))"
COCC12CCN(c3ccc(C#N)c(C(F)(F)F)c3)CC1CN(C(=O)CCc1ccccc1)C2 (stereo not drawn) [S948-0241],67.9 µM,"GPR35 receptor antagonistic activity, with relatively weak activity",do not show a significant increase in DMR signal,–
CC(C)NC(=O)c1cccc(-c2noc(CCc3c[nH]c4ccccc34)n2)c1 [F545-1970],–,"GPR35 receptor antagonistic activity, with relatively weak activity",do not show a significant increase in DMR signal,38.8 µM
